Data published in the supplement of paper PMC7840683.
Structures can show the parent of a compound that is named as a salt. ± gives the standard deviation of the averaged measurements.

System: HepaRG
Test: LDH release cytotoxicity, % of total lysis control; higher = more cytotoxic
Settings: 48 h
How it was run: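 Single-lot HepaRG cells on collagen I-coated 96-well plates were exposed for 48 h in duplicate, in serum-free induction medium with 0.5% DMSO, to eight-point half-log series (test chemicals top 100 µM). Total lysis wells received 0.1% Triton X, and LDH leakage into 50 µL spent medium was read as resorufin fluorescence (CytoTox-ONE, Tecan Safire). Percent cytotoxicity was normalized to on-plate vehicle and total lysis controls and averaged over the duplicates.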

`CCOP(=O)(OCC)Oc1nc(Cl)c(Cl)cc1Cl` [Chlorpyrifos oxon] showed an LDH release cytotoxicity (0.03162 µM) of -1.8 ± 0.21%, an LDH release cytotoxicity (0.1 µM) of -1.33 ± 0.45% and an LDH release cytotoxicity (0.3162278 µM) of -1.43 ± 0.73%. The LDH release cytotoxicity (1 µM) was -1.55 ± 0.93%, the LDH release cytotoxicity (3.16228 µM) was -0.451 ± 0.67% and the LDH release cytotoxicity (10 µM) was 0.221 ± 0.3%. The LDH release cytotoxicity (31.6228 µM) was 0.828 ± 0.99% and the LDH release cytotoxicity (100 µM) was 2.9 ± 1.2%.

Compound `COP(=S)(OC)Oc1nc(Cl)c(Cl)cc1Cl` [Chlorpyrifos-methyl] has an LDH release cytotoxicity (0.0314647 µM) of -1.653 ± 0.012%, an LDH release cytotoxicity (0.0995 µM) of -0.997 ± 0.086% and an LDH release cytotoxicity (0.3146466 µM) of -0.895 ± 1.2%. For the same compound, the LDH release cytotoxicity (0.995 µM) was -1.1 ± 0.81%, the LDH release cytotoxicity (3.14647 µM) was -1.09 ± 0.5% and the LDH release cytotoxicity (9.95 µM) was -0.401 ± 0.0061%. The LDH release cytotoxicity (31.4647 µM) was 0.323 ± 0.39% and the LDH release cytotoxicity (99.5 µM) was 3.84 ± 0.34%.

Compound `CCOP(=S)(OCC)Oc1nc(Cl)c(Cl)cc1Cl` [Chlorpyrifos] has an LDH release cytotoxicity (0.03162 µM) of 0.564 ± 0.48%, an LDH release cytotoxicity (0.1 µM) of -0.761 ± 0.45% and an LDH release cytotoxicity (0.3162278 µM) of -1.52 ± 0.69%. It also gave an LDH release cytotoxicity (1 µM) of -1.1 ± 0.089%, an LDH release cytotoxicity (3.16228 µM) of -0.11 ± 0.44% and an LDH release cytotoxicity (10 µM) of -0.852 ± 0.46%. It also gave an LDH release cytotoxicity (31.6228 µM) of -0.29 ± 0.55% and an LDH release cytotoxicity (100 µM) of 0.964 ± 0.32%.

In the case of `COC(=O)c1c(Cl)c(Cl)c(C(=O)OC)c(Cl)c1Cl` [Chlorthal-dimethyl], the LDH release cytotoxicity (0.03162 µM) is reported as -0.87 ± 0.31%, the LDH release cytotoxicity (0.1 µM) is reported as -0.884 ± 1.1% and the LDH release cytotoxicity (0.3162278 µM) is reported as -1.01 ± 0.16%. For the same compound, the LDH release cytotoxicity (1 µM) was -0.618 ± 0.39%, the LDH release cytotoxicity (3.16228 µM) was -0.53 ± 0.67% and the LDH release cytotoxicity (10 µM) was 0.0929 ± 0.87%. For the same compound, the LDH release cytotoxicity (31.6228 µM) was -0.208 ± 0.25% and the LDH release cytotoxicity (100 µM) was 1.01 ± 0.28%.

Compound `Cc1ccccc1COC1CC2(C(C)C)CCC1(C)O2` (stereo not given) [Cinmethylin] has an LDH release cytotoxicity (0.03162 µM) of -0.203 ± 0.059%, an LDH release cytotoxicity (0.1 µM) of -1.15 ± 0.52% and an LDH release cytotoxicity (0.3162278 µM) of -1.3 ± 0.27%. It also gave an LDH release cytotoxicity (1 µM) of -1.23 ± 0.093%, an LDH release cytotoxicity (3.16228 µM) of -1.09 ± 0.76% and an LDH release cytotoxicity (10 µM) of -0.853 ± 0.059%. The LDH release cytotoxicity (31.6228 µM) was -0.668 ± 0.63% and the LDH release cytotoxicity (100 µM) was 1.99 ± 1.4%.

`O=C(O)CC(O)(CC(=O)O)C(=O)O` [Citric acid] gave an LDH release cytotoxicity (0.03162 µM) of 0.134 ± 0.67%, an LDH release cytotoxicity (0.1 µM) of -0.835 ± 0.31% and an LDH release cytotoxicity (0.3162278 µM) of -0.0952 ± 0.86%. For the same compound, the LDH release cytotoxicity (1 µM) was -1.29 ± 0.12%, the LDH release cytotoxicity (3.16228 µM) was -0.803 ± 0.025% and the LDH release cytotoxicity (10 µM) was 0.951 ± 0.43%. It also gave an LDH release cytotoxicity (31.6228 µM) of 0.893 ± 0.17% and an LDH release cytotoxicity (100 µM) of 0.958 ± 0.17%.

With `CC(C)=CCCC(C)CCO` (stereo not given) [Citronellol] the LDH release cytotoxicity (0.03162 µM) was -1.93 ± 0.69%, the LDH release cytotoxicity (0.1 µM) was -2.94 ± 0.29% and the LDH release cytotoxicity (0.3162278 µM) was -2.48 ± 0.3%. For the same compound, the LDH release cytotoxicity (1 µM) was -2.8 ± 0.43%, the LDH release cytotoxicity (3.16228 µM) was -2.02 ± 0.57% and the LDH release cytotoxicity (10 µM) was -2.14 ± 0.43%. For the same compound, the LDH release cytotoxicity (31.6228 µM) was -1.61 ± 0.76% and the LDH release cytotoxicity (100 µM) was 0.398 ± 0.43%.

`Nc1nc(Cl)nc2c1ncn2C1CC(O)C(CO)O1` (stereo not given) [Cladribine] was tested, and the LDH release cytotoxicity (0.03162 µM) was 1.26 ± 0.91%, the LDH release cytotoxicity (0.1 µM) was 0.387 ± 1.1% and the LDH release cytotoxicity (0.3162278 µM) was 1.42 ± 0.94%. The LDH release cytotoxicity (1 µM) was 1.39 ± 0.35%, the LDH release cytotoxicity (3.16228 µM) was 3.14 ± 0.5% and the LDH release cytotoxicity (10 µM) was 7.59 ± 0.6%. For the same compound, the LDH release cytotoxicity (31.6228 µM) was 10.9 ± 2% and the LDH release cytotoxicity (100 µM) was 13.4 ± 1%.

Compound `C#CCOC(=O)C(C)Oc1ccc(Oc2ncc(Cl)cc2F)cc1` (stereo not given) [Clodinafop-propargyl] has an LDH release cytotoxicity (0.03162 µM) of -1.35 ± 0.68%, an LDH release cytotoxicity (0.1 µM) of -1.3 ± 0.75% and an LDH release cytotoxicity (0.3162278 µM) of -1.68 ± 0.23%. For the same compound, the LDH release cytotoxicity (1 µM) was -0.544 ± 0.27%, the LDH release cytotoxicity (3.16228 µM) was -1.29 ± 0.021% and the LDH release cytotoxicity (10 µM) was -0.851 ± 0.15%. It also gave an LDH release cytotoxicity (31.6228 µM) of -0.0728 ± 0.36% and an LDH release cytotoxicity (100 µM) of 0.27 ± 0.25%.

`Clc1ccccc1-c1nnc(-c2ccccc2Cl)nn1` [Clofentezine] was tested, and the LDH release cytotoxicity (0.03162 µM) was -1.43 ± 0.094%, the LDH release cytotoxicity (0.1 µM) was -0.835 ± 0.41% and the LDH release cytotoxicity (0.3162278 µM) was -0.246 ± 0.27%. For the same compound, the LDH release cytotoxicity (1 µM) was -1.9 ± 0.72%, the LDH release cytotoxicity (3.16228 µM) was -0.967 ± 0.31% and the LDH release cytotoxicity (10 µM) was -1.22 ± 0.43%. For the same compound, the LDH release cytotoxicity (31.6228 µM) was -0.912 ± 0.23% and the LDH release cytotoxicity (100 µM) was 0.757 ± 0.29%.

With `CCOC(=O)C(C)(C)Oc1ccc(Cl)cc1` [Clofibrate] the LDH release cytotoxicity (0.03162 µM) was -0.811 ± 0.59%, the LDH release cytotoxicity (0.1 µM) was -0.737 ± 0.38% and the LDH release cytotoxicity (0.3162278 µM) was -1.03 ± 0.3%. It also gave an LDH release cytotoxicity (1 µM) of -0.873 ± 1.4%, an LDH release cytotoxicity (3.16228 µM) of -1.56 ± 0.66% and an LDH release cytotoxicity (10 µM) of -0.987 ± 0.99%. The LDH release cytotoxicity (31.6228 µM) was -0.0208 ± 0.16% and the LDH release cytotoxicity (100 µM) was 1.51 ± 0.15%.

In the case of `CC1(C)CON(Cc2ccccc2Cl)C1=O` [Clomazone], the LDH release cytotoxicity (0.03162 µM) is reported as -5.32 ± 1.1%, the LDH release cytotoxicity (0.1 µM) is reported as -6.75 ± 0.27% and the LDH release cytotoxicity (0.3162278 µM) is reported as -6.22 ± 0.37%. It also gave an LDH release cytotoxicity (1 µM) of -6.24 ± 0.67%, an LDH release cytotoxicity (3.16228 µM) of -6.33 ± 1.5% and an LDH release cytotoxicity (10 µM) of -5.74 ± 0.57%. For the same compound, the LDH release cytotoxicity (31.6228 µM) was -5.91 ± 0.59% and the LDH release cytotoxicity (100 µM) was -4.53 ± 0.15%.

`CCN(CC)CCOc1ccc(C(=C(Cl)c2ccccc2)c2ccccc2)cc1` [Clomiphene citrate (1:1)] was tested, and the LDH release cytotoxicity (0.0265631 µM) was -2.02 ± 0.85%, the LDH release cytotoxicity (0.084 µM) was -1.22 ± 1.1% and the LDH release cytotoxicity (0.265631 µM) was -0.767 ± 0.54%. It also gave an LDH release cytotoxicity (0.84 µM) of -1.18 ± 0.029%, an LDH release cytotoxicity (2.6563132 µM) of -0.65 ± 0.39% and an LDH release cytotoxicity (8.4 µM) of -1.17 ± 0.63%. For the same compound, the LDH release cytotoxicity (26.563132 µM) was 9.07 ± 8.3% and the LDH release cytotoxicity (84 µM) was 95.2 ± 1.5%.

`CC(Oc1cccc(Cl)c1)C(=O)O` (stereo not given) [Cloprop] was tested, and the LDH release cytotoxicity (0.03162 µM) was -1.06 ± 1.4%, the LDH release cytotoxicity (0.1 µM) was -0.561 ± 0.06% and the LDH release cytotoxicity (0.3162278 µM) was -0.691 ± 0.98%. For the same compound, the LDH release cytotoxicity (1 µM) was -0.434 ± 0.14%, the LDH release cytotoxicity (3.16228 µM) was -0.762 ± 0.08% and the LDH release cytotoxicity (10 µM) was -0.167 ± 0.17%. The LDH release cytotoxicity (31.6228 µM) was -0.608 ± 0.19% and the LDH release cytotoxicity (100 µM) was 0.547 ± 0.3%.

`O=C(O)c1nc(Cl)ccc1Cl` [Clopyralid-olamine] gave an LDH release cytotoxicity (0.03162 µM) of -1.75 ± 0.021%, an LDH release cytotoxicity (0.1 µM) of -1.37 ± 0.22% and an LDH release cytotoxicity (0.3162278 µM) of -2.18 ± 0.81%. It also gave an LDH release cytotoxicity (1 µM) of -3.35 ± 1.5%, an LDH release cytotoxicity (3.16228 µM) of -1.65 ± 0.032% and an LDH release cytotoxicity (10 µM) of -1.04 ± 0.99%. The LDH release cytotoxicity (31.6228 µM) was -1.18 ± 0.77% and the LDH release cytotoxicity (100 µM) was 0.521 ± 0.14%.
